pIC50: −log10 of the molar value.
The molecules below were run on DOHH2 cells (assay: Cell proliferation assay in DOHH2 cells (MTS)). Conditions: 120 h.
Assay type: cell-based
Protocol: To investigate whether a compound is able to inhibit the activity of BTK in cells, a mechanism-based assay using DOHH2 (DSMZ catalog #: ACC47) cell was developed. In this assay, inhibition of BTK was detected by the inhibition of DOHH2 cells proliferation. Cells were collected and plated onto 96-well plates at the optimized cell density (5000 cells/well). Plates were incubated at 37° C., with 5% CO2 for 4 h. Compounds were serially diluted and added to the plates with the final concentrations as 10000, 3333.3, 1111.1, 370.4, 123.5, 41.2, 13.7, 4.6 and 1.5 nM. Plates were incubated at 37° C., with 5% CO2 for 120 h. An aliquot of 20 μL MTS/100 μL medium mixture solution were added to each well and the plates were incubated for exactly 2 h. The reaction was stopped by adding 25 μL 10% SDS to each well. The absorbance was measured by a microplate reader at 490 nm and 650 nm (reference wavelength). IC50 was calculated using GraphPad Prism 5.0.
Select compounds prepared as described above were assayed according to the biological procedures described herein.

Question: How did the pIC50 turn out when `CCOc1cnc2[nH]cc(C(=O)c3ccc(Oc4ccccc4F)cc3C)c2c1N[C@@]12CO[C@H](CO)C1C2` (single isomer, unassigned) [Example 170] was run?
Answer: The pIC50 was 7.92.

Question: How did the pIC50 turn out when `COc1cnc2[nH]cc(C(=O)c3ccc(Oc4ccccc4F)cc3F)c2c1N[C@@]12CO[C@H](CO)C1C2` (single isomer, unassigned) [Example 168] was run?
Answer: The pIC50 was 8.10.

Question: How did the pIC50 turn out when `COc1cnc2[nH]cc(C(=O)c3ccc(Oc4ccccc4F)cc3F)c2c1N[C@@]12CO[C@H](CO)C1C2` (single isomer, unassigned) [Example 169] was run?
Answer: Its pIC50 is 7.19.

Question: How did the pIC50 turn out when `CCOc1cnc2[nH]cc(C(=O)c3ccc(Oc4ccccc4F)cc3F)c2c1N[C@@]12CO[C@H](CO)C1C2` (single isomer, unassigned) [Example 173] was run?
Answer: The pIC50 was 8.15.

Question: With `Cc1cc(Oc2ccccc2)ccc1C(=O)c1c[nH]c2ncc(C#N)c(N[C@@]34COC(CO)[C@@H]3C4)c12` (single isomer, unassigned) [Example 20] as the molecule, how does the pIC50 read?
Answer: Its pIC50 is 7.70.

Same assay, conditions: Homo sapiens, DOHH-2, 120 h

Question: How did the pIC50 turn out when `COc1cnc2[nH]cc(C(=O)c3c(F)cc(Oc4ccccc4F)cc3F)c2c1N[C@@H]1CC[C@@H](CO)OC1` [Example 194, (2,6-difluoro-4-(2-fluorophenoxy)phenyl)(4-(((3R,6S)-6-(hydroxymethyl)tetrahydro-2H-pyran-3-yl)amino)-5-methoxy-1H-pyrrolo[2,3-b]pyridin-3-yl)methanone] was run?
Answer: The pIC50 was 7.59.

Question: `O=C(c1ccc(Oc2ccccc2F)cc1F)c1c[nH]c2ncc(Cl)c(N[C@@H]3CC[C@@H](CO)OC3)c12` [Example 99, (5-chloro-4-(((3R,6S)-6-(hydroxymethyl)tetrahydro-2H-pyran-3-yl)amino)-1H-pyrrolo[2,3-b]pyridin-3-yl)(2-fluoro-4-(2-fluorophenoxy)phenyl)methanone] was tested. Which pIC50 did it give?
Answer: Its pIC50 is 7.62.

Question: How did the pIC50 turn out when `CCOc1cnc2[nH]cc(C(=O)c3c(C)cc(Oc4ccccc4F)cc3F)c2c1N[C@@H]1CC[C@@H](CO)OC1` [Example 135, (5-ethoxy-4-(((3R,6S)-6-(hydroxymethyl)tetrahydro-2H-pyran-3-yl)amino)-1H-pyrrolo[2,3-b]pyridin-3-yl)(2-fluoro-4-(2-fluorophenoxy)-6-methylphenyl)methanone] was run?
Answer: Its pIC50 is 9.00.

Question: `Cc1cc(Oc2ccccc2)ccc1C(=O)c1c[nH]c2nccc(N[C@@H]3CC[C@@H](CO)OC3)c12` [Example 13, (4-(((3R,6S)-6-(hydroxymethyl)tetrahydro-2H-pyran-3-yl)amino)-1H-pyrrolo[2,3-b]pyridin-3-yl)(2-methyl-4-phenoxyphenyl)methanone] was tested. Which pIC50 did it give?
Answer: The pIC50 was 7.72.

Question: With `Cc1nc(Oc2ccccc2)ccc1C(=O)c1c[nH]c2nccc(N[C@@H]3CC[C@@H](CO)OC3)c12` [Example 41, (4-(((3R,6S)-6-(hydroxymethyl)tetrahydro-2H-pyran-3-yl)amino)-1H-pyrrolo[2,3-b]pyridin-3-yl)(2-methyl-6-phenoxypyridin-3-yl)methanone] as the molecule, how does the pIC50 read?
Answer: The pIC50 was 7.28.

Question: How did the pIC50 turn out when `N#Cc1cnc2[nH]cc(C(=O)c3ccc(Oc4ccccc4)cc3Cl)c2c1N[C@@]12COC(CO)[C@@H]1C2` (single isomer, unassigned) [Example 17] was run?
Answer: The pIC50 was 7.37.

Question: `COc1cnc2[nH]cc(C(=O)c3ccc(Oc4ccccc4F)cc3F)c2c1N[C@@H]1CCC(CO)(CO)OC1` [Example 164, (R)-(4-((6,6-bis(hydroxymethyl)tetrahydro-2H-pyran-3-yl)amino)-5-methoxy-1H-pyrrolo[2,3-b]pyridin-3-yl)(2-fluoro-4-(2-fluorophenoxy)phenyl)methanone] was tested. Which pIC50 did it give?
Answer: The pIC50 was 7.66.

Question: How did the pIC50 turn out when `Cc1cc(Oc2ccccc2F)ccc1C(=O)c1c[nH]c2ncc(Cl)c(N[C@@H]3CC[C@@H](CO)OC3)c12` [Example 87, (5-chloro-4-(((3R,6S)-6-(hydroxymethyl)tetrahydro-2H-pyran-3-yl)amino)-1H-pyrrolo[2,3-b]pyridin-3-yl)(4-(2-fluorophenoxy)-2-methylphenyl)methanone] was run?
Answer: The pIC50 was 7.77.

Question: How did the pIC50 turn out when `Cc1cc(Oc2ccccc2F)ccc1C(=O)c1c[nH]c2nccc(N[C@@H]3CC[C@@H](CO)OC3)c12` [Example 46, (4-(2-fluorophenoxy)-2-methylphenyl)(4-(((3R,6S)-6-(hydroxymethyl)tetrahydro-2H-pyran-3-yl)amino)-1H-pyrrolo[2,3-b]pyridin-3-yl)methanone] was run?
Answer: The pIC50 was 9.00.

Question: `O=C(c1ccc(Oc2ccccc2F)cc1F)c1c[nH]c2ncc(F)c(N[C@@H]3CC[C@@H](CO)OC3)c12` [Example 115, (5-fluoro-4-(((3R,6S)-6-(hydroxymethyl)tetrahydro-2H-pyran-3-yl)amino)-1H-pyrrolo[2,3-b]pyridin-3-yl)(2-fluoro-4-(2-fluorophenoxy)phenyl)methanone] was tested. Which pIC50 did it give?
Answer: The pIC50 was 8.30.

Question: `O=C(c1ccc(Oc2ccccc2F)cc1)c1c[nH]c2ncc(F)c(N[C@@H]3CC[C@@H](CO)OC3)c12` [Example 114, (5-fluoro-4-(((3R,6S)-6-(hydroxymethyl)tetrahydro-2H-pyran-3-yl)amino)-1H-pyrrolo[2,3-b]pyridin-3-yl)(4-(2-fluorophenoxy)phenyl)methanone] was tested. Which pIC50 did it give?
Answer: Its pIC50 is 7.92.

Question: With `O=C(c1ccc(Oc2ccccc2)cc1F)c1c[nH]c2nccc(N[C@@H]3CC[C@@H](CO)OC3)c12` [Example 10, (2-fluoro-4-phenoxyphenyl)(4-(((3R,6S)-6-(hydroxymethyl)tetrahydro-2H-pyran-3-yl)amino)-1H-pyrrolo[2,3-b]pyridin-3-yl)methanone] as the molecule, how does the pIC50 read?
Answer: The pIC50 was 7.72.

Question: With `COc1cnc2[nH]cc(C(=O)c3ccc(Oc4c(F)cccc4F)cc3Cl)c2c1N[C@@H]1CC[C@@H](CO)OC1` [Example 186, (2-chloro-4-(2,6-difluorophenoxy)phenyl)(4-(((3R,6S)-6-(hydroxymethyl)tetrahydro-2H-pyran-3-yl)amino)-5-methoxy-1H-pyrrolo[2,3-b]pyridin-3-yl)methanone] as the molecule, how does the pIC50 read?
Answer: Its pIC50 is 7.77.

Question: How did the pIC50 turn out when `Cc1cc(Oc2cccc(F)c2)ccc1C(=O)c1c[nH]c2nccc(N[C@@H]3CC[C@@H](CO)OC3)c12` [Example 47, (4-(3-fluorophenoxy)-2-methylphenyl)(4-(((3R,6S)-6-(hydroxymethyl)tetrahydro-2H-pyran-3-yl)amino)-1H-pyrrolo[2,3-b]pyridin-3-yl)methanone] was run?
Answer: The pIC50 was 7.34.

Question: With `CCOc1cnc2[nH]cc(C(=O)c3ccc(Oc4ccccc4F)cc3Cl)c2c1N[C@@H]1CC[C@@H](CO)OC1` [Example 65, (2-chloro-4-(2-fluorophenoxy)phenyl)(5-ethoxy-4-(((3R,6S)-6-(hydroxymethyl)tetrahydro-2H-pyran-3-yl)amino)-1H-pyrrolo[2,3-b]pyridin-3-yl)methanone] as the molecule, how does the pIC50 read?
Answer: The pIC50 was 9.00.

Question: How did the pIC50 turn out when `COc1cnc2[nH]cc(C(=O)c3ccc(Oc4ccccc4)cc3)c2c1N[C@@H]1CC[C@@H](CO)OC1` [Example 177, (4-(((3R,6S)-6-(hydroxymethyl)tetrahydro-2H-pyran-3-yl)amino)-5-methoxy-1H-pyrrolo[2,3-b]pyridin-3-yl)(4-phenoxyphenyl)methanone] was run?
Answer: Its pIC50 is 8.05.

Question: With `N#Cc1cnc2[nH]cc(C(=O)c3ccc(Oc4ccccc4F)cc3F)c2c1N[C@@H]1CC[C@@H](CO)OC1` [Example 90, 3-(2-fluoro-4-(2-fluorophenoxy)benzoyl)-4-(((3R,6S)-6-(hydroxymethyl)tetrahydro-2H-pyran-3-yl)amino)-1H-pyrrolo[2,3-b]pyridine-5-carbonitrile] as the molecule, how does the pIC50 read?
Answer: Its pIC50 is 7.30.

Question: How did the pIC50 turn out when `O=C(c1ccc(Oc2ccccc2)cc1F)c1c[nH]c2ncc(F)c(N[C@@H]3CC[C@@H](CO)OC3)c12` [Example 58, (5-fluoro-4-(((3R,6S)-6-(hydroxymethyl)tetrahydro-2H-pyran-3-yl)amino)-1H-pyrrolo[2,3-b]pyridin-3-yl)(2-fluoro-4-phenoxyphenyl)methanone] was run?
Answer: The pIC50 was 7.64.

Question: `O=C(c1ccc(Oc2ccccc2F)cc1)c1c[nH]c2nccc(N[C@@H]3CC[C@@H](CO)OC3)c12` [Example 104, (4-(2-fluorophenoxy)phenyl)(4-(((3R,6S)-6-(hydroxymethyl)tetrahydro-2H-pyran-3-yl)amino)-1H-pyrrolo[2,3-b]pyridin-3-yl)methanone] was tested. Which pIC50 did it give?
Answer: Its pIC50 is 7.64.

Question: `Cc1cc(Oc2ccccc2F)cc(F)c1C(=O)c1c[nH]c2nccc(N[C@@H]3CC[C@@H](CO)OC3)c12` [Example 130, (2-fluoro-4-(2-fluorophenoxy)-6-methylphenyl)(4-(((3R,6S)-6-(hydroxymethyl)tetrahydro-2H-pyran-3-yl)amino)-1H-pyrrolo[2,3-b]pyridin-3-yl)methanone] was tested. Which pIC50 did it give?
Answer: Its pIC50 is 7.44.

Question: With `Cc1cc(Oc2ccccc2F)ncc1C(=O)c1c[nH]c2nccc(N[C@@H]3CC[C@@H](CO)OC3)c12` [Example 103, (6-(2-fluorophenoxy)-4-methylpyridin-3-yl)(4-(((3R,6S)-6-(hydroxymethyl)tetrahydro-2H-pyran-3-yl)amino)-1H-pyrrolo[2,3-b]pyridin-3-yl)methanone] as the molecule, how does the pIC50 read?
Answer: The pIC50 was 7.41.

Question: `COc1cnc2[nH]cc(C(=O)c3ccc(Oc4ccccc4)cc3F)c2c1N[C@@H]1CC[C@@H](CO)OC1` [Example 191, (2-fluoro-4-phenoxyphenyl)(4-(((3R,6S)-6-(hydroxymethyl)tetrahydro-2H-pyran-3-yl)amino)-5-methoxy-1H-pyrrolo[2,3-b]pyridin-3-yl)methanone] was tested. Which pIC50 did it give?
Answer: The pIC50 was 9.00.

Question: With `CCOc1cnc2[nH]cc(C(=O)c3ccc(Oc4ccccc4F)cc3C)c2c1N[C@@H]1CC[C@@H](CO)OC1` [Example 64, (5-ethoxy-4-(((3R,6S)-6-(hydroxymethyl)tetrahydro-2H-pyran-3-yl)amino)-1H-pyrrolo[2,3-b]pyridin-3-yl)(4-(2-fluorophenoxy)-2-methylphenyl)methanone] as the molecule, how does the pIC50 read?
Answer: Its pIC50 is 9.00.

Question: How did the pIC50 turn out when `COc1cnc2[nH]cc(C(=O)c3c(F)cc(Oc4c(F)cccc4F)cc3F)c2c1N[C@@H]1CC[C@@H](CO)OC1` [Example 193, (4-(2,6-difluorophenoxy)-2,6-difluorophenyl)(4-(((3R,6S)-6-(hydroxymethyl)tetrahydro-2H-pyran-3-yl)amino)-5-methoxy-1H-pyrrolo[2,3-b]pyridin-3-yl)methanone] was run?
Answer: Its pIC50 is 7.92.

Source: patent US20220235049A1, “SUBSTITUTED PYRROLO [2, 3-b] PYRIDINE AND PYRAZOLO [3,4-b] PYRIDINE DERIVATIVES AS PROTEIN KINASE INHIBITORS” (Fochon Pharmaceuticals, Ltd., priority 2019, published 2022)
